Data taken from patent US20240082345A1, “PEPTIDE COMPOSITION FOR PREVENTION OR TREATMENT OF ALZHEIMER'S DISEASE” (priority 2020, published 2024).
Blank lines part the entries; values can stand above or below the compound they belong to. Non-standard residues stand in square brackets, D forms with d. Residues, ends and D or L forms follow the SMILES beside them.

Columns and labels:
[1] = system: LPS-treated BV-2 cells (microglial cell line); assay: LPS-mediated cytokine production in BV-2 cells (qRT-PCR); assay type: cell-based; details: 20 ng/ml peptide + 2 ng/ml LPS co-treatment, 6 hours, vs LPS-treated cells (FIG. 3)
Procedure: Microglial cell line BV-2 cells were co-treated with 20 ng/ml of peptide (DD-5052) according to the invention and 2 ng/ml of LPS and cultured for 6 hours. Subsequently, the mRNA expression levels of proinflammatory cytokines IL-1(3 and TNF-α were measured using quantitative real-time polymerase chain reaction (PCR).
Specifically, total RNA was extracted from BV-2 cells using an RNA purification kit (Gene All, Seoul, Korea) according to the manufacturer's protocol. cDNA was synthesized using the Revert Aid First Strand cDNA Synthesis Kit (Thermo Scientific, Waltham, MA, USA) and qRT-PCR analysis was performed using the SYBR Green PCR Master Mix (Thermo Scientific, Waltham, MA, USA). The gene-specific primer sequences for IL-1(3 and TNF-α are shown in the following Table 4, and the mRNA levels of IL-1(3 and TNF-α were calculated relative to the control sample amount.

wild-type mice = assay: LPS-induced neuroinflammation (microgliosis) in brains of wild-type mice, Iba-1 immunohistochemical staining; assay type: in vivo, mouse
Procedure: Sections were incubated in 1% H2O2 for 15 minutes, and then put into a solution in which a mouse […] was diluted 1:400, and incubated at 4° C. overnight. After incubation with a biotinylated secondary antibody (diluted 1:200, Vector Laboratories, Inc., Burlingame, CA, USA) at room temperature for 1 hour, the sections were incubated with an avidin-biotin-peroxidase complex (diluted 1:100, vector) for 1 hour. Thereafter, 0.02% 3,3′-diaminobenzidine and 0.01% H2O2 were reacted for about 3 minutes. After each incubation stage, the sections were washed three times with PBS. Finally, the sections were mounted on gelatin-coated slides, and dehydrated while increasing an alcohol concentration and cleared in xylene.
Experiments were designed as illustrated in FIG. 4A to confirm microglia in the brains of wild-type mice, and immunohistochemical staining was performed using a goat-anti Iba-1 antibody (Ab5076,1:500) against Iba-1 which is a marker for microglia. Three-month-old wild-type mice were intraperitoneally injected (i.p.) with LPS (30 mg/kg/day)+vehicle (Hartmann dex) or DD-S052 (30 mg/kg/day)+LPS (30 mg/kg/day), and sacrificed 6 hours after the last injection of LPS. In this case, LPS and DD-S052 were loaded in separate syringes and injected separately into the right and left abdomen, respectively, and LPS was administered, and then DD-S052 was administered approximately 1 minute later. The half-life of LPS in mouse blood was approximately 2 to 4 minutes. 6 hours after administration of LPS and DD-S052, mouse brains were removed by cardiac perfusion fixation (4% PFA). Thereafter, the removed mouse brain was secondarily fixed in 4% PFA for 20 hours, and then immersed in a 30% sucrose solution. Subsequently, the mouse brains were frozen and sliced into a thickness of 30 μm.
Thereafter, immunohistochemical staining for Iba-1 was performed by the method described in Example 1-2 in order to confirm microglia in the mouse hippocampus, and the results are shown in FIG. 4B.
Microglia were confirmed in the substantia nigra pars compacta (SNc) by performing immunohistochemical staining for Iba-1. Wild-type mice were treated with LPS and DD-5052 in the same manner as in Example 5-1.

5XFAD mice [2] = assay: LPS-induced neuroinflammation in brains of 5XFAD Alzheimer's dementia mice, Iba-1 immunohistochemical staining; assay type: in vivo, mouse; details: 3-month-old 5XFAD mice, single dose 10 mg/kg + LPS 3 mg/kg, 48 hours, vs LPS+vehicle (FIG. 5B)
Procedure: Since LPS causes different degrees of inflammatory response depending on the strain of animals to be administered, LPS origin and the like, the animals were co-administered a single dose of 3 mg/kg of LPS and 10 mg/kg of DD-5052, and then sacrificed 48 hours later, 5XFAD mice were treated with 3 mg/kg of LPS by referencing a document which confirms the mortality rate by treating 5XFAD mice with 3 mg/kg of LPS (Barton, S. M.; Janve, V. A.; McClure, R.; Anderson, A.; Matsubara, J. A.; Gore, J. C.; Pham, W., Lipopolysaccharide Induced Opening of the Blood Brain Barrier on Aging 5XFAD Mouse Model. J Alzheimers Dis 2019, 67, (2), 503-513.) and a document which confirms that microgliosis reaches its maximum value from day 2 after the administration of LPS (Kondo, S.; Kohsaka, S.; Okabe, S., Long-term changes of spine dynamics and microglia after transient peripheral immune response triggered by LPS in vivo. […] 48 hours after administration of LPS and DD-5052, mouse brains were removed by cardiac perfusion fixation (4% PFA). Thereafter, the removed mouse brain was secondarily fixed in 4% PFA for 20 hours, and then immersed in a 30% sucrose solution. Subsequently, the mouse brains were frozen and sliced into a thickness of 30

5XFAD mice [3] = assay: Cognitive function experiment (spontaneous alternation, total arm entry) in 5XFAD mice; assay type: in vivo, mouse; details: 5.5-month-old 5XFAD mice, 2 mg/kg i.p. every other day for 4 weeks
Procedure: (§1) Then, cognitive function experiments were performed on each mouse, and then the mouse brain was fixed by cardiac perfusion fixation. Thereafter, the removed mouse brain was secondarily fixed in a 4% PFA solution for 20 hours, and then immersed in a 30% sucrose solution. Subsequently, the mouse brains were frozen and sliced into a thickness of 30 μm.
The cognitive function experiment is a novel experiment based on the instinctive behavior of rodents with the will to explore new environments, and is an experiment to evaluate the spatial perception ability of mice to choose a path different from the one which mice chose immediately before in a maze, and scores are given by dividing spontaneous alternation (the ratio of choosing a different path from the path chosen immediately before) by the total number of passages passed (total arm entry). The total arm entry during the experiment becomes an index to evaluate whether all groups have similar motility and whether the experiment is performed normally, apart from spatial perception ability.

5XFAD mice [4] = assay: Alzheimer's dementia-related pathology in 5XFAD mice, immunofluorescence staining (4G8, Iba-1, NeuN); assay type: in vivo, mouse
Procedure: as §1
The effects of DD-S052 on beta-amyloid accumulation, microgliosis, and neuronal loss were confirmed using an immunofluorescence staining method.
Specifically, in the case of immunofluorescence labeling, 4 to 5 coronal sections were obtained at subventricular zone (1.18 and 0.02 mm from bregma) and hippocampal formation (−1.58 and −3.80 mm from bregma) levels based on Paxinos and Franklin's “The Mouse Brain in Stereotaxic Coordinates.” Brain tissue was washed with PBS using the free-floating method in a Titramax 101 orbital shaker (Heidolph, Schwabach, Germany) and sections were incubated with PBS including 0.3% Triton X-100, 0.5 mg/mL bovine serum albumin (BSA) and primary antibodies as follows at 4° C. overnight: mouse anti-4G8 antibody (1:2,000; Cat. #800701, BioLegend, USA), mouse anti-NeuN antibody (1:100; Cat. #MAB377, Merck KGaA, Darmstadt, Germany), and goat anti-Iba-1 antibody (1:500; Cat. #ab5076, Abcam, Cambridge, UK).
Before being incubated with the anti-4G8 antibody, brain sections were incubated with 70% formic acid for antigen retrieval for 20 minutes, washed three times with PBS for 5 minutes each, and then incubated with a secondary antibody at room temperature for 50 minutes, and fluorescence signals were observed. As the secondary antibodies, the following antibodies were used: donkey Alexa 488-conjugated anti-mouse IgG (1:200; Cat. #A21202, Thermo Fisher Scientific Inc.), donkey Alexa 488-conjugated anti-goat IgG (1:200; Cat. #A11055, Thermo Fisher Scientific Inc.), and donkey Alexa 594-conjugated anti-rat IgG (1:200; Cat. #A21209, Thermo Fisher Scientific Inc.). All antibodies were diluted with PBS including 0.3% Triton X-100.

tau K18 = target: T1, tau K18 (Homo sapiens, UniProt P10636); assay: Thioflavin T (ThT) assay of tau aggregation; assay type: biochemical; details: 0.5 mg/mL tau K18, 0.1 mg/mL heparin, DTT, PBS pH 7.4, 21 hours incubation; 10-1000 μg/mL (FIG. 7)
T1 construct: 0.5 mg/mL tau K18, 0.1 mg/mL heparin
T1 sequence (P10636 561-685 limits assumed): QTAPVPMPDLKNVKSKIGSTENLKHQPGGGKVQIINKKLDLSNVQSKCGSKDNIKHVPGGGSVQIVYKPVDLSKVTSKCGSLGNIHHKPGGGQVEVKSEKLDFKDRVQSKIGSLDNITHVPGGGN
Procedure: Thioflavin T (ThT) assay was performed to investigate the effect of DD-S052 and PEGylated DD-S052 on tau aggregation. ThT is known to bind to (3-sheet-rich protein aggregates to produce fluorescence. Synthetic tau K18 was dissolved in PBS (pH 7.4) in order to induce tau aggregation. The polymerization of tau proteins was induced by preparing a solution including PBS (pH 7.4), 0.5 mg/mL tau K18, 0.1 mg/mL heparin and 100 ρ, M DTT. DD-5052 at various concentrations (10, 20, 40, 100, and 1000 μg/mL), a 100 ρ, M methylene blue (MB) solution (positive control), and PEGylated DD-5052 were incubated together with an aggregation mixture for 21 hours. After incubation, a ThT solution (15 ρ, M in a 50 mM glycine buffer, pH 8.9) was added to a 96-well plate containing the sample and the aggregation mixture, and the resulting mixture was incubated for 3 hours. The fluorescence intensity of ThT was measured using a SpectraMax iD3 Multi-Mode Microplate Reader (Molecular Devices, San Jose, CA, USA) at excitation and emission wavelengths of 440 and 484 nm and quantified.

[5] = Artificial membrane permeation test simulating the blood-brain barrier (PAMPA-096), LC-MS / ESI-FT-ICR-MS; assay type: in vitro ADME; details: for MS peak intensity, Before / LogPe: 100 μg/ml peptide; for LogPe: 18 hr, room temperature, PBS; for MS peak intensity, Acceptor / MS peak intensity, Donor: after 18 hr
Procedure: In order to confirm whether the peptide DD-S052 of the present invention passes through the blood-brain barrier (BBB), an artificial membrane permeation test simulating the blood-brain barrier was performed using a parallel artificial membrane permeability assay kit (PAMPA-096; BioAssay Systems).
Analysis conditions are shown in the following Table 5, and analysis was performed by liquid chromatography-mass spectrometry (LC-MS).
Quantitative analysis was performed using electrospray ionization coupled to Fourier transform ion cyclotron resonance mass spectrometry (ESI-FT-ICR-MS), and the analysis conditions are shown in the following Table 6.
The intensity value of a peak corresponding to the test material was used according to the Log Pe function described in an existing document (Evaluation of the reproducibility of Parallel Artificial Membrane Permeation Assays PAMPA, Sigma Aldrich), and the value calculated by the Log Pe function was used to predict the degree of permeation by referencing an existing document (Brian. J et al. Predicting a Drug's Membrane Permeability: A Computational Model Validated With in Vitro Permeability Assay Data. J Phys Chem B. 2017 May 25;121(20):5228-5237).

Compound: CC(C)C[C@@H](NC(=O)[C@H](N)CCCCN)C(=O)N[C@H](CCCNC(=N)N)C(=O)N[C@@H](C(=O)N[C@H](CCCCN)C(=O)N[C@H](CC(C)C)C(=O)N[C@H](CCCNC(=N)N)C(=O)N[C@H](CCCNC(=N)N)C(=O)N[C@H](Cc1ccc(O)cc1)C(=O)N[C@H](CC(C)C)C(=O)N[C@H](CCCNC(=N)N)C(N)=O)C(C)C [DD-S052, KLRVKLRRYLR-NH2 (AcOH)] (H-[dK][dL][dR][dV][dK][dL][dR][dR][dY][dL][dR]-NH2; N-terminus assumed)
mRNA expression of IL-1(3 induced by LPS) [1]: suppressed
mRNA expression of TNF-α induced by LPS [1]: suppressed
microglial morphology in hippocampus (wild-type mice; 3-month-old wild-type mice, 30 mg/kg/day i.p. + LPS 30 mg/kg/day i.p., 6 hours after last LPS (FIG. 4B)): tendency to change from an amoeboid shape to a ramified shape
number of Iba-1-positive cells in hippocampus (wild-type mice; 3-month-old wild-type mice, 30 mg/kg/day i.p. + LPS 30 mg/kg/day, vs LPS+vehicle (Hartmann dex), p<0.001 (FIG. 4C)): remarkably decreased
microglial morphology in substantia nigra pars compacta (SNc) (wild-type mice; wild-type mice, 30 mg/kg/day i.p. + LPS 30 mg/kg/day (FIG. 4D)): tendency to change from an amoeboid shape to a ramified shape
Iba-1(+) microglia in the SNc (wild-type mice; wild-type mice, 30 mg/kg/day i.p. + LPS 30 mg/kg/day, vs LPS+vehicle (FIG. 4D)): tended to decrease
Iba-1(+) microglia in cerebral cortex and hippocampus (5XFAD mice [2]): decreased
total arm entry (5XFAD mice [3]; 8-minute session, vs vehicle-treated 5XFAD, no significance between groups): increased
spontaneous alternation (5XFAD mice [3]; vs vehicle-treated 5XFAD (FIG. 6B)): increased
number of NeuN(+) cells (neuronal loss) (5XFAD mice [4]; 2 mg/kg i.p. every other day for 4 weeks): increased
4G8(+) region (beta-amyloid accumulation) (5XFAD mice [4]; 2 mg/kg i.p. every other day for 4 weeks (FIG. 6C)): reduced
number of Iba-1(+) cells (microgliosis) (5XFAD mice [4]; 2 mg/kg i.p. every other day for 4 weeks (FIG. 6D)): reduced
fluorescence intensity of thioflavin T (ThT) (tau K18 aggregation) (tau K18): reduced
MS peak intensity, Before ([5]; peak at 375 m/z): 1829478400
LogPe ([5]; peak at 375 m/z): −5.405
MS peak intensity, Acceptor ([5]; peak at 375 m/z): 717305173
MS peak intensity, Donor ([5]; peak at 375 m/z): 909677952
MS peak intensity, Before ([5]; peak at 512 m/z): 1667509760
LogPe ([5]; peak at 512 m/z): −5.362
MS peak intensity, Acceptor ([5]; peak at 512 m/z): 717488192
MS peak intensity, Donor ([5]; peak at 512 m/z): 867968256

fluorescence intensity of thioflavin T (ThT) (tau K18 aggregation) (tau K18): reduced
Compound: EG-KLRVKLRRYLR-NH2 (AcOH) (not fully specified; N-terminal PEG, C-terminal amide, acetate salt; DD-S052P; BINDING (11) amine group (NH2) is added to C-terminus of polypeptide.; SITE (9) trifluoroacetic acid (TFA) at a terminus of the 9th amino acid from the N terminus of a peptide is substituted with an acetate salt.; SITE (1) peptide N-terminus PEGylation)
